Experimental data as given in PubChem BioAssay (NCI).
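Briefly, cells in 96-well plates were exposed to five compound concentrations for 48 h, and endpoints were estimated by linear interpolation. At the GI50, growth is halved. Definition used: TGI = concentration required for complete inhibition of growth.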

Tests used:
Test in all cases: DTP human tumour cell line panel, 48 h
OVCAR-4 ovarian = system: OVCAR-4 ovarian
SK-MEL-2 melanoma = system: SK-MEL-2 melanoma
SNB-75 CNS = system: SNB-75 CNS
A549 NSCLC = system: A549 NSCLC
SK-MEL-5 melanoma = system: SK-MEL-5 melanoma
UACC-62 melanoma = system: UACC-62 melanoma
IGROV1 ovarian = system: IGROV1 ovarian
SF-539 CNS = system: SF-539 CNS
COLO 205 colon = system: COLO 205 colon
HCT-15 colon = system: HCT-15 colon

| SMILES | TGI (OVCAR-4 ovarian) [µM] | TGI (SK-MEL-2 melanoma) [µM] | TGI (SNB-75 CNS) [µM] | TGI (A549 NSCLC) [µM] | TGI (SK-MEL-5 melanoma) [µM] | TGI (UACC-62 melanoma) [µM] | TGI (IGROV1 ovarian) [µM] | TGI (SF-539 CNS) [µM] | TGI (COLO 205 colon) [µM] | TGI (HCT-15 colon) [µM] | GI50 (OVCAR-4 ovarian) [µM] | GI50 (SK-MEL-2 melanoma) [µM] | GI50 (SNB-75 CNS) [µM] | GI50 (A549 NSCLC) [µM] | GI50 (SK-MEL-5 melanoma) [µM] | GI50 (UACC-62 melanoma) [µM] | GI50 (IGROV1 ovarian) [µM] | GI50 (SF-539 CNS) [µM] | GI50 (COLO 205 colon) [µM] | GI50 (HCT-15 colon) [µM] |
| --- | --- | --- | --- | --- | --- | --- | --- | --- | --- | --- | --- | --- | --- | --- | --- | --- | --- | --- | --- | --- |
| CC(=O)OCC1OC(n2c(-c3ccc(N)cc3)cc(-c3ccco3)c(C#N)c2=O)C(OC(C)=O)C(OC(C)=O)C1OC(C)=O (stereo not drawn) | > 50 | > 50 | > 50 | > 50 | > 50 | > 50 | > 50 | 30.2 | > 50 | > 50 |  |  |  |  |  |  |  |  |  |  |
| O=C(/C=C(\O)C(=O)O)/C=C(\O)c1ccc(Cl)cc1 | > 100 | > 100 | > 100 | > 100 | > 100 | > 100 | > 100 | > 100 | > 100 | > 100 |  |  |  |  |  |  |  |  |  |  |
| NNC(=S)N/N=C(\c1nc2ccc(Cl)cc2[nH]c1=O)C(O)c1ccc(Cl)cc1Cl (stereo not drawn) | > 100 | > 100 | > 100 | > 100 | > 100 | > 100 | > 100 | > 100 | > 100 | > 100 |  |  |  |  |  |  |  |  |  |  |
| O=C(c1ccc(Cl)cc1)N(C(=S)N1CCN(c2ccccc2)CC1)C1CCCCC1 | > 100 | > 100 | > 100 | > 100 | > 100 | > 100 | > 100 | > 100 | > 100 | > 100 |  |  |  |  |  |  |  |  |  |  |
| COc1ccc(-c2ccc(/C=N/n3cnn(CN4CCN(C)CC4)c3=S)o2)c([N+](=O)[O-])c1 | > 100 | > 100 | > 100 | > 100 | 62.7 | 40 | > 100 | 34.1 | > 100 | 37.5 | > 100 | > 100 | 68.9 | 39.5 | 23.9 | 16.1 | 54.7 | 17 | 52.8 | 16.7 |
| COC(=O)c1nc(N)[nH]c(=O)c1-c1ccc(Cl)cc1 | > 100 | > 100 | > 100 | > 100 | > 100 | > 100 | > 100 | > 100 | > 100 | > 100 |  |  |  |  |  |  |  |  |  |  |
| CC(=O)c1c[nH]c2ccc(-c3ccnc(Nc4ccc(NC(=O)c5cccc(F)c5)c(CN5CCOCC5)c4)n3)cc12 | 3.07 | 0.549 | 0.342 | > 35.5 | 0.463 | 0.43 | 1.69 | 0.457 | 0.317 |  | 0.307 | 0.18 | 0.042 | 0.185 | 0.135 | 0.127 | 0.151 | 0.0809 | 0.0637 | 0.112 |
| Cc1ccc(NC(=O)C(=O)C2C(=O)C3=C(CC2(C)C)NC2C=CC=CC2S3)c(C)c1 (stereo not drawn) | > 100 | > 100 | > 100 | > 100 | > 100 | > 100 | > 100 | > 100 | > 100 | > 100 |  |  |  |  |  |  |  |  |  |  |
| Oc1ccc(Br)cc1CN1CCN(Cc2ccc(Cl)cc2)CC1 | 86.3 | 40.3 | > 100 | > 100 | 26.4 | > 100 | > 100 | > 100 | 51.1 | 51.3 | 11.8 | 13.2 | 27.6 | 25.1 | 13 | 17.6 | 44.3 | 32 | 21.7 | 16.1 |
| CC([C@H]1CCC2C3CCC4C(=O)C(NC=O)=CC[C@]4(C)C3CC[C@@]21C)N(C)C (stereo partly drawn) | 26.6 | 25.2 | 15.5 | 12.7 | 3.04 | 3.98 |  | 3.14 | 3.4 | 4.26 | 5.12 | 7.7 | 3.66 | 3.81 | 1.54 | 1.94 | 2.29 | 1.58 | 1.75 | 1.42 |
| Nc1nc(Cl)cc2c1ncn2C1OC(CO)C(O)C1O (stereo not drawn) | > 100 | > 100 | > 100 | > 100 | > 100 | > 100 | > 100 | > 100 | > 100 | > 100 | > 100 | > 100 | > 100 | > 100 | > 100 | > 100 | > 100 | > 100 | > 100 | > 100 |
| COC1=C(C(=O)OC(C)(C)C)C23CCCCC2(C(C(=O)OC(C)(C)C)=C(OC)C3C(=O)OC(C)(C)C)C1C(=O)OC(C)(C)C (stereo not drawn) | > 100 | > 100 | > 100 | > 100 | 36 | > 100 | > 100 | > 100 | 32.8 | > 100 |  |  |  |  |  |  |  |  |  |  |
| COC1=CC(=O)c2c(O)c3c(c(O)c2C1=O)CC(C)(O)OC3 (stereo not drawn) | 4.51 | 9.9 | > 67.6 | 8.8 | 2.41 | 7.35 | 7.94 | 9.66 | 4.76 | 9.08 |  |  |  |  |  |  |  |  |  |  |
| Cn1c(=O)c(C2c3ccccc3Oc3c2c(=O)n(C)c2ccccc32)c(O)c2ccccc21 (stereo not drawn) | > 100 | > 100 | > 100 | > 100 | > 100 | > 100 | > 100 | > 100 | > 100 | > 100 |  |  |  |  |  |  |  |  |  |  |
| O=c1c2ccccc2oc2nccnc12 | > 100 | > 100 | > 100 | > 100 | > 100 | > 100 | > 100 | > 100 | > 100 | > 100 |  |  |  |  |  |  |  |  |  |  |
| COc1ccc(NC(=O)CC(=O)n2nc(-c3ccccc3)c(N=Nc3ccc(C)cc3)c2-c2ccccc2)cc1 | 53.8 | 65.2 | 41.2 | 63.3 | > 78.1 | 49.5 | 49.9 | 44 | > 100 | > 100 |  |  |  |  |  |  |  |  |  |  |
| Cc1cc(C)cc(NC(=O)CCC(=O)C2CCC/C2=N\NC(=O)C(=O)NN)c1 (stereo not drawn) | > 100 | > 100 | > 100 | > 100 | > 100 | > 100 | > 100 | > 100 | > 100 | > 100 |  |  |  |  |  |  |  |  |  |  |
